Test results from PubChem BioAssay (NCI).
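Each compound was tested at five concentrations against cells in 96-well plates for 48 hours. The concentration for full growth arrest is given as TGI.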

How the values were obtained:
Test in all cases: inhibition of tumour cell growth, NCI panel, 48 h
SK-OV-3 ovarian = test system: SK-OV-3 ovarian
SK-MEL-28 melanoma = test system: SK-MEL-28 melanoma
U251 CNS = test system: U251 CNS
CAKI-1 renal = test system: CAKI-1 renal
OVCAR-3 ovarian = test system: OVCAR-3 ovarian
TK-10 renal = test system: TK-10 renal
NCI-H460 lung = test system: NCI-H460 lung
SN12C renal = test system: SN12C renal
HCT-15 colon = test system: HCT-15 colon
SNB-75 CNS = test system: SNB-75 CNS
SF-539 CNS = test system: SF-539 CNS
NCI-H23 lung = test system: NCI-H23 lung
MCF7 breast = test system: MCF7 breast
UACC-62 melanoma = test system: UACC-62 melanoma
OVCAR-8 ovarian = test system: OVCAR-8 ovarian
BT-549 breast = test system: BT-549 breast
RXF 393 renal = test system: RXF 393 renal
DU-145 prostate = test system: DU-145 prostate
COLO 205 colon = test system: COLO 205 colon
MDA-MB-231 breast = test system: MDA-MB-231 breast
K-562 leukemia = test system: K-562 leukemia
MDA-MB-435 = test system: MDA-MB-435
IGROV1 ovarian = test system: IGROV1 ovarian
786-0 renal = test system: 786-0 renal
NCI-H226 lung = test system: NCI-H226 lung
A549 NSCLC = test system: A549 NSCLC
A498 renal = test system: A498 renal
HS 578T breast = test system: HS 578T breast
UO-31 renal = test system: UO-31 renal
M14 melanoma = test system: M14 melanoma
KM12 colon = test system: KM12 colon
OVCAR-5 ovarian = test system: OVCAR-5 ovarian
NCI/ADR-RES ovarian = test system: NCI/ADR-RES ovarian
UACC-257 melanoma = test system: UACC-257 melanoma
LOX IMVI melanoma = test system: LOX IMVI melanoma
NCI-H522 lung = test system: NCI-H522 lung
HOP-62 NSCLC = test system: HOP-62 NSCLC
RPMI-8226 leukemia = test system: RPMI-8226 leukemia
EKVX NSCLC = test system: EKVX NSCLC
PC-3 prostate = test system: PC-3 prostate
SF-295 CNS = test system: SF-295 CNS
HCT-116 colon = test system: HCT-116 colon
SF-268 CNS = test system: SF-268 CNS
HOP-92 NSCLC = test system: HOP-92 NSCLC
SNB-19 CNS = test system: SNB-19 CNS
MALME-3M melanoma = test system: MALME-3M melanoma
HT29 colon = test system: HT29 colon
SW-620 colon = test system: SW-620 colon
SK-MEL-5 melanoma = test system: SK-MEL-5 melanoma
HCC-2998 colon = test system: HCC-2998 colon
MDA-N = test system: MDA-N
MOLT-4 leukemia = test system: MOLT-4 leukemia
SK-MEL-2 melanoma = test system: SK-MEL-2 melanoma
T-47D breast = test system: T-47D breast
CCRF-CEM leukemia = test system: CCRF-CEM leukemia
OVCAR-4 ovarian = test system: OVCAR-4 ovarian
HL-60(TB) leukemia = test system: HL-60(TB) leukemia
SR leukemia = test system: SR leukemia
ACHN renal = test system: ACHN renal

SMILES: S=C(N/N=C\C=N/NC(=S)N1CCCCC1)N1CCCCC1
- TGI (SK-OV-3 ovarian): > 100 µM
- TGI (SK-MEL-28 melanoma): > 100 µM
- TGI (U251 CNS): > 100 µM
- TGI (CAKI-1 renal): > 100 µM
- TGI (OVCAR-3 ovarian): 78.2 µM
- TGI (TK-10 renal): > 100 µM
- TGI (NCI-H460 lung): > 41.5 µM
- TGI (SN12C renal): > 100 µM
- TGI (HCT-15 colon): > 100 µM
- TGI (SNB-75 CNS): > 100 µM
- TGI (SF-539 CNS): > 100 µM
- TGI (NCI-H23 lung): > 40.1 µM
- TGI (MCF7 breast): > 100 µM
- TGI (UACC-62 melanoma): > 100 µM
- TGI (OVCAR-8 ovarian): > 100 µM
- TGI (BT-549 breast): > 100 µM
- TGI (RXF 393 renal): 6.06 µM
- TGI (DU-145 prostate): > 100 µM
- TGI (COLO 205 colon): > 100 µM
- TGI (MDA-MB-231 breast): > 100 µM
- TGI (K-562 leukemia): > 100 µM
- TGI (MDA-MB-435): > 100 µM
- TGI (IGROV1 ovarian): > 52.7 µM
- TGI (786-0 renal): > 31.6 µM
- TGI (NCI-H226 lung): > 68.1 µM
- TGI (A549 NSCLC): > 100 µM
- TGI (A498 renal): > 100 µM
- TGI (HS 578T breast): > 51.9 µM
- TGI (UO-31 renal): > 63.1 µM
- TGI (M14 melanoma): > 100 µM
- TGI (KM12 colon): > 100 µM
- TGI (OVCAR-5 ovarian): > 100 µM
- TGI (NCI/ADR-RES ovarian): > 22.3 µM
- TGI (UACC-257 melanoma): > 100 µM
- TGI (LOX IMVI melanoma): > 100 µM
- TGI (NCI-H522 lung): > 100 µM
- TGI (HOP-62 NSCLC): > 21.1 µM
- TGI (RPMI-8226 leukemia): > 100 µM
- TGI (EKVX NSCLC): > 100 µM
- TGI (PC-3 prostate): > 100 µM
- TGI (SF-295 CNS): > 77.8 µM
- TGI (HCT-116 colon): > 100 µM
- TGI (SF-268 CNS): > 100 µM
- TGI (HOP-92 NSCLC): 45.8 µM
- TGI (SNB-19 CNS): > 100 µM
- TGI (MALME-3M melanoma): > 35 µM
- TGI (HT29 colon): > 100 µM
- TGI (SW-620 colon): > 100 µM
- TGI (SK-MEL-5 melanoma): > 32.4 µM
- TGI (HCC-2998 colon): > 100 µM
- TGI (MDA-N): > 100 µM

SMILES: O=C1CCC[C@@H]2NC[C@@H](c3ccc4c(c3)OCO4)[C@H]12
- TGI (SK-OV-3 ovarian): > 25 µM
- TGI (SK-MEL-28 melanoma): > 25 µM
- TGI (U251 CNS): > 25 µM
- TGI (CAKI-1 renal): > 25 µM
- TGI (TK-10 renal): > 25 µM
- TGI (NCI-H460 lung): > 25 µM
- TGI (SN12C renal): > 25 µM
- TGI (HCT-15 colon): > 25 µM
- TGI (SNB-75 CNS): > 25 µM
- TGI (NCI-H23 lung): > 25 µM
- TGI (MCF7 breast): > 25 µM
- TGI (UACC-62 melanoma): > 25 µM
- TGI (MOLT-4 leukemia): > 25 µM
- TGI (OVCAR-8 ovarian): > 25 µM
- TGI (RXF 393 renal): > 25 µM
- TGI (DU-145 prostate): > 25 µM
- TGI (COLO 205 colon): > 25 µM
- TGI (MDA-MB-231 breast): > 25 µM
- TGI (K-562 leukemia): > 25 µM
- TGI (MDA-MB-435): > 25 µM
- TGI (IGROV1 ovarian): > 25 µM
- TGI (SK-MEL-2 melanoma): > 25 µM
- TGI (786-0 renal): > 25 µM
- TGI (NCI-H226 lung): > 25 µM
- TGI (A549 NSCLC): > 25 µM
- TGI (T-47D breast): > 25 µM
- TGI (A498 renal): > 25 µM
- TGI (HS 578T breast): > 25 µM
- TGI (UO-31 renal): > 25 µM
- TGI (CCRF-CEM leukemia): > 25 µM
- TGI (M14 melanoma): > 25 µM
- TGI (KM12 colon): > 25 µM
- TGI (OVCAR-5 ovarian): > 25 µM
- TGI (NCI/ADR-RES ovarian): > 25 µM
- TGI (UACC-257 melanoma): > 25 µM
- TGI (LOX IMVI melanoma): > 25 µM
- TGI (NCI-H522 lung): > 25 µM
- TGI (HOP-62 NSCLC): > 25 µM
- TGI (OVCAR-4 ovarian): > 25 µM
- TGI (HL-60(TB) leukemia): > 25 µM
- TGI (RPMI-8226 leukemia): > 25 µM
- TGI (EKVX NSCLC): > 25 µM
- TGI (PC-3 prostate): > 25 µM
- TGI (SF-295 CNS): > 25 µM
- TGI (SR leukemia): > 25 µM
- TGI (HCT-116 colon): > 25 µM
- TGI (SF-268 CNS): > 25 µM
- TGI (HOP-92 NSCLC): > 25 µM
- TGI (SNB-19 CNS): > 25 µM
- TGI (MALME-3M melanoma): > 25 µM
- TGI (ACHN renal): > 25 µM
- TGI (HT29 colon): > 25 µM
- TGI (SK-MEL-5 melanoma): > 25 µM
- TGI (HCC-2998 colon): > 25 µM
- TGI (MDA-N): > 25 µM
